Among the data in a melting point compilation (Tetko et al.) are melting point values, retold here.

Starred links: 1 amine or outer side, 2 acyl side, 3 side chain; linkers in the order of their positions; H or OH if unused. Positions of bridges follow the written chain, without caps; N, C: chain ends. Non-standard residues stand in square brackets, D forms with d. Residues, ends and D or L forms follow the SMILES beside them. *: point of attachment. X7 = CCC(C)C(N[*:1])C(O)CC(=O)OC(C(C)C)C(O)C(C)C(=O)[*:2]; NMeY = CN[CH](Cc1ccc(O)cc1)C(=O)O; NMeL = CN[CH](CC(C)C)C(=O)O; Boc = CC(C)(C)OC(=O)*; Bn = c1ccc(C*)cc1

Usually melting point stands for the temperature, or range, at which the solid turns liquid. Turning to `CC(C)C[C@H](NC(=O)[C@H](C)NC(=O)[C@H](C)NC(=O)OC(C)(C)C)C(=O)NCCNc1ccc(NCCNC(=O)[C@H](CC(C)C)NC(=O)[C@H](C)NC(=O)[C@H](C)NC(=O)OC(C)(C)C)c2c1C(=O)c1c(O)ccc(O)c1C2=O`, the melting point was over 220 °C.

For `C[C@H](CCN(CCCCNC(=O)[C@@H](NC(=O)CCCCCCNC(=NC(=O)OCc1ccccc1)NC(=O)OCc1ccccc1)O[C@@H](C)c1ccc2ccccc2c1)C(=O)OCc1ccccc1)NC(=O)OCc1ccccc1`, the melting point was determined as 58 °C.

`CCCCN(c1nc(N(CCCC)C2CC(C)(C)N(OC3CCCCC3)C(C)(C)C2)nc(N(CCCC)C2CC(C)(C)N(OC3CCCCC3)C(C)(C)C2)n1)C1CC(C)(C)N(OC2CCCCC2)C(C)(C)C1` displayed a melting point of 189 to 194 °C.

`CC(C)[C@H](NC(=O)N(C)CCc1ccccn1)C(=O)N[C@@H](Cc1ccccc1)[C@H](O)[C@@H](O)[C@H](Cc1ccccc1)NC(=O)[C@@H](NC(=O)N(C)CCc1ccccn1)C(C)C`: the melting point was in the range of 109 to 111 °C.

As to `CCCCCCCCCCCCCCCC(=O)OC(CCCCCCCCCCCCCC)C(=O)N[C@H](C(=O)N[C@@H](CCC(=O)OCc1ccccc1)C(=O)OCc1ccccc1)C(C)C` (stereo partly specified), the melting point turned out to be 65 °C.

With `CC(C)(Cc1ccc(S(=O)(=O)CCc2c(CCNS(=O)(=O)Cc3ccc(Cl)c(Cl)c3)n(C(c3ccccc3)c3ccccc3)c3ccc(Cl)cc23)cc1)C(=O)O`, the melting point fell in the range of 207 to 208 °C.

As to `CN=S(=O)(NC(=O)Nc1nc(C)nc(OC)n1)c1ccccc1Cl` (stereo unspecified), the melting point fell in the range of 154 to 160 °C.

In turn, `Cc1ccc(OCC(=O)O)c(C(=O)NCc2ccc(Br)cc2F)c1` had a melting point of 145 to 146 °C.

`CC(C)n1c(CC[C@@H](O)C[C@@H](O)CC(=O)O)c(-c2ccc(F)cc2)c(-c2ccccc2)c1C(=O)NCc1cccc(C(=O)O)c1` came in with a melting point of 140 to 141 °C.

For the compound `[C-]#[N+]C(C)C(=O)NCC1CC2CC(C1C)C2(C)C` (stereo unspecified), the melting point was in the range of 58 to 59 °C.

For the compound `CCCCCCCCCCCCCCCCOC(=O)c1ccc(C(=O)N(CCCCCCCCCCCCCCCC)OCCCCCCCCCCCCCCCC)nc1`, the melting point was 93 to 95 °C.

Take `CCCCCCCCCCCCCCCCCCCCCCCCCC(=O)NC(COC1OC(CO)C(O)C(O)C1O)C(O)C(O)CCCCCCCCCCCCCC` (stereo unspecified): the melting point came out at 190 °C.

`CC(C)C(NC(=O)C(Cc1ccc(OCc2ccccc2)cc1)NC(=O)C(COCc1ccccc1)NC(=O)C(Cc1c[nH]c2ccccc12)NC(=O)OC(C)(C)C)C(=O)O` (stereo unspecified) (Boc-WS(Bn)Y(Bn)V-OH; configuration not given here) came in with a melting point of 98 to 100 °C.

The compound `CC(=O)NC1C(OCc2ccccc2)OC(COCc2ccccc2)C(OC2OC(COCc3ccccc3)C(OCc3ccccc3)C(OCc3ccccc3)C2NC(C)=O)C1O` (stereo unspecified) gave a melting point of 220 to 222 °C.

`NC(=O)OCCCN1CCN2c3ccccc3Cc3ccccc3C2C1` (stereo unspecified) came in with a melting point of 160 to 161 °C.

On to `CCC(C=CC(C)C1CCC2C3CC=C4CC(OC(=O)N(CC(COC(c5ccccc5)(c5ccccc5)c5ccccc5)C(=O)NC)C(C)C)CCC4(C)C3CCC12C)C(C)C` (stereo unspecified), for which the melting point fell in the range of 92 to 93 °C.

Compound `COc1cc(OC)c(C=CC(c2ccc(OC)c(CC(=O)O)c2)(S(N)(=O)=O)S(=O)(=O)C(C=Cc2c(OC)cc(OC)cc2OC)(c2ccc(OC)c(CC(=O)O)c2)S(N)(=O)=O)c(OC)c1` (stereo unspecified) displayed a melting point of 180 to 184 °C.

On to `CCC(C)C=O` (stereo unspecified), for which the melting point was -60 °C.

In turn, `CC1CNc2c(cccc2S(=O)(=O)NC(CCCc2cn(C(c3ccccc3)(c3ccccc3)c3ccccc3)cn2)C(=O)N2CCC(C)CC2C(=O)NOCc2ccccc2)C1` (stereo unspecified) showed a melting point of 90 to 100 °C.

`CCc1nc(OC)c(NC(=O)N2CCN(c3cc(C)cc(C)c3)CC2)cc1C(=O)NC(C)C(=O)Nc1cc(CO)cc(Nc2c3ccccc3nc3c(OC)cccc23)c1` (stereo unspecified) showed a melting point of 178 to 179 °C.

Consider `O=S(=O)(C(/C=C/c1c(F)c(F)c(F)c(F)c1F)c1c(F)c(F)c(F)c(F)c1F)C(/C=C/c1c(F)c(F)c(F)c(F)c1F)c1c(F)c(F)c(F)c(F)c1F` (stereo unspecified), for which the melting point lay in the range of 137 to 139 °C.

The compound `c1ccc(C2CN3CCSC3=N2)cc1` (stereo unspecified) yielded a melting point of 60 to 61.5 °C.

`O=C(Nc1c(Cl)cncc1Cl)C(=O)c1cn(Cc2c(F)cccc2[N+](=O)[O-])c2c(O)cccc12` gave a melting point of 308 to 310 °C.

`COc1cc2c3c(ccc4c5ccc6c7c(cc(OC)c(c1c34)c75)-c1ccccc1C6C#C[Si](C(C)C)(C(C)C)C(C)C)C(C#C[Si](C(C)C)(C(C)C)C(C)C)c1ccccc1-2` (stereo unspecified) showed a melting point of 295 to 298 °C.

For the compound `COC(=O)C(C)NC(=O)C(COCc1ccccc1)NC(=O)C(Cc1ccc(OCc2ccccc2)cc1)NC(=O)C(Cc1c[nH]c2ccccc12)NC(=O)OC(C)(C)C` (stereo unspecified) (Boc-WY(Bn)S(Bn)A-OMe; configuration not given here), the melting point was 178 to 182 °C.

In turn, `CCc1nc(OC)c(NC(=O)N2CCN(c3cc(Cl)cc(Cl)c3)CC2)cc1C(=O)NC(C)C(=O)Nc1cc(CO)cc(Nc2c3ccccc3nc3ccccc23)c1` (stereo unspecified) gave a melting point of 184 to 186 °C.

Consider `O=C(OCc1ccc(OCCCCCCCCCCC2c3c(c4ccccc4c4ccccc34)-c3c2c2ccccc2c2ccccc32)cc1)C(=CNC1CC1)C(=O)c1cc(F)c(F)cc1F`, for which the melting point was in the range of 49 to 51 °C.

Compound `O=C1C(COCc2ccccc2)N(Cc2ccccc2)CCN(Cc2ccccc2)C(COCc2ccccc2)C(=O)N(Cc2ccccc2)CCN1Cc1ccccc1` (stereo unspecified) had a melting point of 86 to 87 °C.

In turn, `C=CCNc1nc(NC(C)(C)CC(C)(C)C)nc(N(CCCCCCN(c2nc(NCC=C)nc(NC(C)(C)CC(C)(C)C)n2)C2CC(C)(C)NC(C)(C)C2)C2CC(C)(C)NC(C)(C)C2)n1` came in with a melting point of 160 to 162 °C.

For the compound `Cc1ccc(Br)cc1C`, the melting point was -0.2 °C.

As to `CCCCCCC1(CCCCCC)c2cc(-c3ccc4c(c3)nc(N)c3nc(COCC)n(CC(C)(C)O)c34)ccc2-c2ccc(-c3ccc4c(c3)nc(N)c3nc(COCC)n(CC(C)(C)O)c34)cc21`, the melting point was in the range of 261 to 265 °C.

`Cc1ccc(S(=O)(=O)N2CCOCCN(S(=O)(=O)c3ccc(C)cc3)CCN(S(=O)(=O)c3ccc(C)cc3)CCN(S(=O)(=O)c3ccc(C)cc3)CC2)cc1`: the melting point was in the range of 198 to 201 °C.

`CON=C(C(=O)NC1C(=O)N2C1CSC(c1ccc(Cl)cc1)C2(O)C(=O)OC(C)(C)C)c1csc(NC(c2ccccc2)(c2ccccc2)c2ccccc2)n1` (stereo unspecified) showed a melting point of 191 °C.

On to `O=C(OCc1ccc(OCCCCCCCCCCC2c3c(c4ccccc4c4ccccc34)-c3c2c2ccccc2c2ccccc32)cc1)c1cn(C2CC2)c2cc(F)c(F)cc2c1=O`, for which the melting point lay in the range of 71 to 73 °C.

Consider `FC(F)(F)C(F)(F)C(F)(F)C(F)(F)C(F)(F)C(F)(F)C(F)(F)C(F)(F)CCCCCCC1(CCCCCCC(F)(F)C(F)(F)C(F)(F)C(F)(F)C(F)(F)C(F)(F)C(F)(F)C(F)(F)F)c2cc(Br)ccc2-c2ccc(Br)cc21`, for which the melting point lay within 82 to 83 °C.

`Cc1cc(CCC(=O)OCC(COC(=O)CCc2cc(C)c(O)c(C(C)(C)C)c2)(COC(=O)CCc2cc(C)c(O)c(C(C)(C)C)c2)COC(=O)CCc2cc(C)c(O)c(C(C)(C)C)c2)cc(C(C)(C)C)c1O` displayed a melting point of 45 to 55 °C.

As for `COc1cc(OC)c(/C=C/C(c2ccc(OC)c(NC(=O)CO)c2)S(=O)(=O)C(/C=C/c2c(OC)cc(OC)cc2OC)c2ccc(OC)c(NC(=O)CO)c2)c(OC)c1` (stereo unspecified), the melting point lay in the range of 174 to 176 °C.

`COCCOCCOc1cc2c3cc(OCCOCCOC)c(OCCOCCOC)cc3c3cc(OCCOCCOC)c(OCCOCCOC)cc3c2cc1OCCOCCOC` registered a melting point of 54 °C.

In turn, `CCCCCCCCCCCC(=O)OC(CCCCCCCCCCC)CC(=O)NC(CCOP(=O)(Oc1ccccc1)Oc1ccccc1)C(=O)OCc1ccccc1` (stereo unspecified) returned a melting point of 31 to 32.1 °C.

`CS(C)(=O)=NC(=O)c1cc(O)ccc1[N+](=O)[O-]` returned a melting point of 146 to 149 °C.

`CC(c1cc(C(C)(C)C)cc(C(C)(C)C)c1O)c1cc(C(C)(C)C)cc(C(C)(C)C)c1OP1Oc2c(cc(C(C)(C)C)cc2C(C)(C)C)C(C)c2cc(C(C)(C)C)cc(C(C)(C)C)c2O1` (stereo unspecified) gave a melting point of 219 to 221 °C.

In turn, `CC(C)[C@H](NC(=O)N(C)Cc1ccccn1)C(=O)N[C@@H](Cc1ccccc1)[C@H](O)[C@@H](O)[C@H](Cc1ccccc1)NC(=O)[C@@H](NC(=O)N(C)Cc1csc(N)n1)C(C)C` registered a melting point of 97 to 99 °C.

The compound `O=C1OC(=O)c2ccc3c4c(ccc1c24)C(=O)OC3=O` yielded a melting point of 300 °C.

On to `COC1C(=O)C2(C)C(OC)CC3OCC3(OC(C)=O)C2C(OC(=O)c2ccccc2)C2(O)CC(OC(=O)C(O)C(NC(=O)OC(C)(C)C)c3ccccc3)C(C)=C1C2(C)C` (stereo unspecified), for which the melting point fell in the range of 125 to 145 °C.

In the case of `FC(F)(F)C(F)(F)C(F)(F)C(F)(F)C(F)(F)C(F)(F)c1nc2c(Br)sc(Br)c2nc1C(F)(F)C(F)(F)C(F)(F)C(F)(F)C(F)(F)C(F)(F)F`, the melting point fell in the range of 46 to 47 °C.

Compound `FC(F)(Br)C(F)(Cl)Br` (stereo unspecified) gave a melting point of -72.9 °C.

For `C=CCOC1OC(CO)C(O)C(OC(=O)CC(CCCCCCCCCCC)OCc2ccccc2)C1NC(=O)CC(CCCCCCCCCCC)OCc1ccccc1` (stereo unspecified), the melting point lay within 80 to 82 °C.

Compound `CCCCC1(CC)CS(=O)(=O)c2ccc(N(C)C)cc2C(c2cccc(NC(=O)COCCOCCOCC(=O)NCc3ccc(C4C(CCC(O)c5ccccc5)C(=O)N4c4ccc(F)cc4)cc3)c2)C1O` (stereo unspecified) showed a melting point of 120 °C.

Regarding `CCC(C)C1NC(=O)C(NC(=O)C(CC(C)C)NC)C(C)OC(=O)C(Cc2ccc(OC)cc2)N(C)C(=O)C2CCCN2C(=O)C(CC(C)C)NC(=O)C(C)C(O)C(C(C)C)OC(=O)CC1O` (stereo unspecified) (H-[NMeL]T[X7]LP[NMeY](Me); ester 2-C; configuration not given here), the melting point lay within 124 to 127 °C.

Turning to `CC1(C)CC(Nc2nc(N(C3CC(C)(C)NC(C)(C)C3)C3CC(C)(C)NC(C)(C)C3)nc(N(C3CC(C)(C)NC(C)(C)C3)C3CC(C)(C)NC(C)(C)C3)n2)CC(C)(C)N1`, the melting point is 318 to 320 °C.

`CC(C)CCCC(C)C1CCC2C3CC=C4CC(N(CCCNC(=O)CCNC(=O)CCCCCNc5ccc([N+](=O)[O-])cc5[N+](=O)[O-])S(=O)(=O)c5ccccc5[N+](=O)[O-])CCC4(C)C3CCC12C` (stereo unspecified) showed a melting point of 86 to 87 °C.
